# From PubChem BioAssay AID248 (DTP/NCI, 2004)
# Several values for one entry are separate records, joined by “and”; a condition that tells them apart may be missing. Identical values can stand only once. Toxic doses and inconclusive results are not listed.
# System: L1210 leukemia ip in BDF1 mice, survival T/C
# Assay: NCI In Vivo Anticancer Drug Screen. Data for tumor model L1210 Leukemia (intraperitoneal) in B6D2F1 (BDF1) mice
# Conditions: higher = longer survival
# Procedure, shortened: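 Mice bearing the transplanted tumor received compound or vehicle. Survival of the treated group was divided by that of the vehicle-treated control group to give the ratio.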
smiles,measurement,setting,value
C1CN1c1nc(N2CC2)nc(N2CC2)n1,T/C,"endpoint: mean survival time, dose: 0.05 mg/kg/injection, schedule: Q01DX009 (ip), vehicle: saline",94 % of control
same,T/C,"endpoint: mean survival time, dose: 0.06 mg/kg/injection, schedule: Q01DX009 (ip), vehicle: saline",95 % of control
same,T/C,"endpoint: mean survival time, dose: 0.06 mg/kg/injection, schedule: Q01DX Z (ip), vehicle: saline",97 % of control
same,T/C,"endpoint: mean survival time, dose: 0.1 mg/kg/injection, schedule: Q01DX009 (ip), vehicle: saline",105 % of control
same,T/C,"endpoint: mean survival time, dose: 0.12 mg/kg/injection, schedule: Q01DX005 (ip), vehicle: saline",115 % of control
same,T/C,"endpoint: mean survival time, dose: 0.12 mg/kg/injection, schedule: Q01DX009 (ip), vehicle: saline",107 % of control
same,T/C,"endpoint: mean survival time, dose: 0.12 mg/kg/injection, schedule: Q01DX009 (sc), vehicle: saline",101 % of control
same,T/C,"endpoint: mean survival time, dose: 0.12 mg/kg/injection, schedule: Q01DX010 (ip), vehicle: saline",110 % of control
same,T/C,"endpoint: mean survival time, dose: 0.12 mg/kg/injection, schedule: Q01DX Z (ip), vehicle: carboxymethylcellulose (CMC)",113 % of control
same,T/C,"endpoint: mean survival time, dose: 0.12 mg/kg/injection, schedule: Q01DX Z (ip), vehicle: saline",118 % of control
same,T/C,"endpoint: mean survival time, dose: 0.13 mg/kg/injection, schedule: Q01DX009 (ip), vehicle: saline",110 % of control
same,T/C,"endpoint: mean survival time, dose: 0.13 mg/kg/injection, schedule: Q01DX010 (oral), vehicle: carboxymethylcellulose (CMC)",119 % of control
same,T/C,"endpoint: mean survival time, dose: 0.16 mg/kg/injection, schedule: Q01DX001 (ip), vehicle: saline",109 % of control and 120 % of control
same,T/C,"endpoint: mean survival time, dose: 0.2 mg/kg/injection, schedule: Q01DX009 (ip), vehicle: saline",121 % of control
same,T/C,"endpoint: mean survival time, dose: 0.25 mg/kg/injection, schedule: Q01DX001 (ip), vehicle: saline",103 % of control
same,T/C,"endpoint: mean survival time, dose: 0.25 mg/kg/injection, schedule: Q01DX005 (ip), vehicle: saline",115 % of control
same,T/C,"endpoint: mean survival time, dose: 0.25 mg/kg/injection, schedule: Q01DX006 (iv), vehicle: saline",119 % of control
same,T/C,"endpoint: mean survival time, dose: 0.25 mg/kg/injection, schedule: Q01DX009 (sc), vehicle: saline",123 % of control
same,T/C,"endpoint: mean survival time, dose: 0.25 mg/kg/injection, schedule: Q01DX Z (ip), vehicle: carboxymethylcellulose (CMC)",119 % of control
same,T/C,"endpoint: mean survival time, dose: 0.25 mg/kg/injection, schedule: Q01DX Z (sc), vehicle: saline",124 % of control
same,T/C,"endpoint: mean survival time, dose: 0.48 mg/kg/injection, schedule: Q## X008 (ip), vehicle: saline",110 % of control
same,T/C,"endpoint: mean survival time, dose: 0.48 mg/kg/injection, schedule: Q## X016 (ip), vehicle: saline",103 % of control
same,T/C,"endpoint: mean survival time, dose: 0.48 mg/kg/injection, schedule: Q## X024 (ip), vehicle: saline",107 % of control
same,T/C,"endpoint: mean survival time, dose: 0.5 mg/kg/injection, schedule: Q01DX001 (ip), vehicle: saline",107 % of control
same,T/C,"endpoint: mean survival time, dose: 0.5 mg/kg/injection, schedule: Q01DX001 (sc), vehicle: saline",112 % of control
same,T/C,"endpoint: mean survival time, dose: 0.5 mg/kg/injection, schedule: Q01DX006 (iv), vehicle: saline",150 % of control
same,T/C,"endpoint: mean survival time, dose: 0.5 mg/kg/injection, schedule: Q01DX009 (oral), vehicle: saline",107 % of control
same,T/C,"endpoint: mean survival time, dose: 0.5 mg/kg/injection, schedule: Q01DX010 (oral), vehicle: carboxymethylcellulose (CMC)",164 % of control
same,T/C,"endpoint: mean survival time, dose: 0.5 mg/kg/injection, schedule: Q01DX Z (im), vehicle: saline",156 % of control
same,T/C,"endpoint: mean survival time, dose: 0.5 mg/kg/injection, schedule: Q04DX003 (ip), vehicle: Klucel (hydroxypropylcellulose) (HPC)",117 % of control
same,T/C,"endpoint: mean survival time, dose: 0.5 mg/kg/injection, schedule: Q## X002 (ip), vehicle: saline",109 % of control
same,T/C,"endpoint: mean survival time, dose: 0.5 mg/kg/injection, schedule: Q## X003 (ip), vehicle: saline",110 % of control and 115 % of control
same,T/C,"endpoint: mean survival time, dose: 0.5 mg/kg/injection, schedule: Q## X006 (ip), vehicle: saline",107 % of control
same,T/C,"endpoint: mean survival time, dose: 0.5 mg/kg/injection, schedule: Q## X024 (ip), vehicle: saline",102 % of control
same,T/C,"endpoint: mean survival time, dose: 0.5 mg/kg/injection, schedule: Q#A X Z (ip), vehicle: saline",151 % of control
same,T/C,"endpoint: mean survival time, dose: 0.67 mg/kg/injection, schedule: Q01DX005 (ip), vehicle: saline",153 % of control and 158 % of control
same,T/C,"endpoint: mean survival time, dose: 0.7 mg/kg/injection, schedule: Q01DX001 (ip), vehicle: saline",103 % of control and 105 % of control
same,T/C,"endpoint: mean survival time, dose: 0.8 mg/kg/injection, schedule: Q01DX009 (ip), vehicle: saline",115 % of control
same,T/C,"endpoint: mean survival time, dose: 0.86 mg/kg/injection, schedule: Q01DX001 (ip), vehicle: saline",159 % of control
same,T/C,"endpoint: mean survival time, dose: 0.96 mg/kg/injection, schedule: Q## X008 (ip), vehicle: saline",106 % of control
same,T/C,"endpoint: mean survival time, dose: 0.96 mg/kg/injection, schedule: Q## X016 (ip), vehicle: saline",111 % of control
same,T/C,"endpoint: mean survival time, dose: 1.0 mg/kg/injection, schedule: Q01DX001 (sc), vehicle: saline",115 % of control
same,T/C,"endpoint: mean survival time, dose: 1.0 mg/kg/injection, schedule: Q01DX006 (iv), vehicle: saline",114 % of control
same,T/C,"endpoint: mean survival time, dose: 1.0 mg/kg/injection, schedule: Q01DX009 (oral), vehicle: saline",124 % of control
same,T/C,"endpoint: mean survival time, dose: 1.0 mg/kg/injection, schedule: Q01DX010 (oral), vehicle: carboxymethylcellulose (CMC)",119 % of control
same,T/C,"endpoint: mean survival time, dose: 1.0 mg/kg/injection, schedule: Q01DX Z (ip), vehicle: saline",96 % of control and 110 % of control
same,T/C,"endpoint: mean survival time, dose: 1.0 mg/kg/injection, schedule: Q04DX003 (ip), vehicle: Klucel (hydroxypropylcellulose) (HPC)",152 % of control and 173 % of control
same,T/C,"endpoint: mean survival time, dose: 1.0 mg/kg/injection, schedule: Q## X003 (ip), vehicle: saline",177 % of control
same,T/C,"endpoint: mean survival time, dose: 1.0 mg/kg/injection, schedule: Q## X008 (ip), vehicle: saline",108 % of control
same,T/C,"endpoint: mean survival time, dose: 1.0 mg/kg/injection, schedule: Q#A X Z (ip), vehicle: saline",93 % of control
same,T/C,"endpoint: mean survival time, dose: 1.3 mg/kg/injection, schedule: Q## X003 (ip), vehicle: saline",164 % of control
same,T/C,"endpoint: mean survival time, dose: 1.3 mg/kg/injection, schedule: Q## X004 (ip), vehicle: saline",185 % of control
same,T/C,"endpoint: mean survival time, dose: 1.5 mg/kg/injection, schedule: Q01DX005 (ip), vehicle: saline",118 % of control
same,T/C,"endpoint: mean survival time, dose: 1.5 mg/kg/injection, schedule: Q04DX003 (ip), vehicle: saline",169 % of control
same,T/C,"endpoint: mean survival time, dose: 1.75 mg/kg/injection, schedule: Q07DX Z (ip), vehicle: saline",193 % of control
same,T/C,"endpoint: mean survival time, dose: 2.0 mg/kg/injection, schedule: Q01DX001 (oral), vehicle: saline",106 % of control
same,T/C,"endpoint: mean survival time, dose: 2.0 mg/kg/injection, schedule: Q01DX001 (sc), vehicle: saline",159 % of control
same,T/C,"endpoint: mean survival time, dose: 2.0 mg/kg/injection, schedule: Q01DX010 (oral), vehicle: carboxymethylcellulose (CMC)",97 % of control
same,T/C,"endpoint: mean survival time, dose: 2.0 mg/kg/injection, schedule: Q## X002 (ip), vehicle: saline",197 % of control
same,T/C,"endpoint: mean survival time, dose: 2.0 mg/kg/injection, schedule: Q## X003 (ip), vehicle: saline",172 % of control and 186 % of control
same,T/C,"endpoint: mean survival time, dose: 2.0 mg/kg/injection, schedule: Q## X004 (ip), vehicle: saline",191 % of control
same,T/C,"endpoint: mean survival time, dose: 2.0 mg/kg/injection, schedule: Q## X006 (ip), vehicle: saline",193 % of control
same,T/C,"endpoint: mean survival time, dose: 2.0 mg/kg/injection, schedule: Q## X016 (ip), vehicle: saline",168 % of control
same,T/C,"endpoint: mean survival time, dose: 2.0 mg/kg/injection, schedule: Q## X024 (ip), vehicle: saline",188 % of control
same,T/C,"endpoint: mean survival time, dose: 2.1 mg/kg/injection, schedule: Q01DX001 (ip), vehicle: saline",187 % of control
same,T/C,"endpoint: mean survival time, dose: 3.0 mg/kg/injection, schedule: Q01DX001 (ip), vehicle: saline",107 % of control
same,T/C,"endpoint: mean survival time, dose: 3.0 mg/kg/injection, schedule: Q## X003 (ip), vehicle: saline",150 % of control
same,T/C,"endpoint: mean survival time, dose: 3.0 mg/kg/injection, schedule: Q## X004 (ip), vehicle: saline",108 % of control
same,T/C,"endpoint: mean survival time, dose: 3.13 mg/kg/injection, schedule: Q01DX001 (ip), vehicle: saline",164 % of control
same,T/C,"endpoint: mean survival time, dose: 3.2 mg/kg/injection, schedule: Q01DX001 (ip), vehicle: saline",213 % of control
same,T/C,"endpoint: mean survival time, dose: 4.0 mg/kg/injection, schedule: Q01DX001 (oral), vehicle: saline",122 % of control
same,T/C,"endpoint: mean survival time, dose: 4.0 mg/kg/injection, schedule: Q01DX009 (oral), vehicle: saline",113 % of control
same,T/C,"endpoint: mean survival time, dose: 4.0 mg/kg/injection, schedule: Q01DX Z (oral), vehicle: saline",93 % of control
same,T/C,"endpoint: mean survival time, dose: 4.0 mg/kg/injection, schedule: Q## X002 (ip), vehicle: saline",118 % of control
same,T/C,"endpoint: mean survival time, dose: 4.0 mg/kg/injection, schedule: Q## X006 (ip), vehicle: saline",95 % of control
same,T/C,"endpoint: mean survival time, dose: 4.5 mg/kg/injection, schedule: Q01DX001 (ip), vehicle: saline",94 % of control
same,T/C,"endpoint: mean survival time, dose: 4.5 mg/kg/injection, schedule: Q## X003 (ip), vehicle: saline",98 % of control
same,T/C,"endpoint: mean survival time, dose: 4.5 mg/kg/injection, schedule: Q## X004 (ip), vehicle: saline",106 % of control
same,T/C,"endpoint: mean survival time, dose: 8.0 mg/kg/injection, schedule: Q01DX001 (ip), vehicle: saline",110 % of control
same,T/C,"endpoint: mean survival time, dose: 16.0 mg/kg/injection, schedule: Q01DX001 (ip), vehicle: saline",107 % of control
same,T/C,"endpoint: mean survival time, dose: 49.0 micrograms/kg/injection, schedule: Q01DX Z (ip), vehicle: carboxymethylcellulose (CMC)",95 % of control
same,T/C,"endpoint: mean survival time, dose: 98.0 micrograms/kg/injection, schedule: Q01DX Z (ip), vehicle: carboxymethylcellulose (CMC)",97 % of control
same,T/C,"endpoint: mean survival time, dose: 195.0 micrograms/kg/injection, schedule: Q01DX Z (ip), vehicle: carboxymethylcellulose (CMC)",95 % of control
same,T/C,"endpoint: mean survival time, dose: 390.0 micrograms/kg/injection, schedule: Q01DX Z (ip), vehicle: carboxymethylcellulose (CMC)",100 % of control
same,T/C,"endpoint: median survival time, dose: 0.25 mg/kg/injection, schedule: Q01DX001 (ip), vehicle: saline",104 % of control
same,T/C,"endpoint: median survival time, dose: 0.5 mg/kg/injection, schedule: Q01DX001 (ip), vehicle: saline",115 % of control
